According to patent publication US7572606B1 (Nereus Pharmaceuticals, Inc., priority 2005, dated 2009):
Read-outs that look alike come from different tables or passages of the source.

Experiments:
Experiment in all cases: NCI 60 cell line screen, sulforhodamine B, 48 h
Type in all cases: cell-based, human
tGROV1 = settings: tGROV1, Ovarian Cancer
Description: (§1) A detailed description of the screening procedure can be found at hypertext transfer protocol (http://) “dtp.nci.nih.gov/branches/btb/ivclsp.html.”
(§2) In brief, each of the 60 human tumor cell lines were grown in RPMI 1640 medium, supplemented with 5% fetal bovine serum and 2 mM L-glutamine. Cells were plated at their appropriate density in 96-well microtiter plates and incubated at 37° C., 5% CO2, 95% air and 100% relative humidity. […] Cells were incubated for an additional 48 hours and a sulforhodamine B protein assay was used to estimate cell viability or growth.

NCVADR-RES = tested on: NCVADR-RES
Description: as §1, §2

NCI-H460 = settings: NCI-H460, Non-Small Cell Lung Cancer
Description: as §1, §2

OVCAR-3 = settings: OVCAR-3, Ovarian Cancer
Description: as §1, §2

EKVX = settings: Non-Small Cell Lung Cancer
Description: as §1, §2

DU-145 = tested on: DU-145
Description: as §1, §2

SK-OV-3 = settings: SK-OV-3, Ovarian Cancer
Description: as §1, §2

ACHN = settings: Renal Cancer
Description: as §1, §2

HCT-116 = settings: HCT-116, Colon Cancer
Description: as §1, §2

HCI-H23 = settings: HCI-H23, Non-Small Cell Lung Cancer
Description: as §1, §2

SF-539 = settings: SF-539, CNS Cancer
Description: as §1, §2

HCT-15 = tested on: HCT-15
Description: as §1, §2

RXF393 = settings: RXF393, Renal Cancer
Description: as §1, §2

A498 = tested on: A498
Description: as §1, §2

SNB-19 = tested on: SNB-19
Description: as §1, §2

HDP-92 = tested on: HDP-92
Description: as §1, §2

M14 = tested on: M14
Description: as §1, §2

SK-MEL-21 = settings: for CC50: Homo sapiens
Description: as §1, §2

UACC-257 = tested on: UACC-257
Description: as §1, §2

MCF7 = settings: MCF7, Breast Cancer
Description: as §1, §2

RPMI-8226 = tested on: RPMI-8226
Description: as §1, §2

UO-11 = tested on: UO-11
Description: as §1, §2

PC-3 = tested on: PC-3
Description: as §1, §2

K-562 = settings: K-562, Leukemia
Description: as §1, §2

OVCAR-4 = settings: OVCAR-4, Ovarian Cancer
Description: as §1, §2

SF-295 = settings: SF-295, CNS Cancer
Description: as §1, §2

HDP-62 = settings: HDP-62, Non-Small Cell Lung Cancer
Description: as §1, §2

SR = settings: Leukemia
Description: as §1, §2

COLO 205 = settings: COLO 205, Colon Cancer
Description: as §1, §2

U251 = settings: U251, CNS Cancer
Description: as §1, §2

[1] = Homo sapiens, 60 cell, read-out: Log10 LC50 (converted)
[2] = HDP-92, Non-Small Cell Lung Cancer

Compound: C[C@@]12OC(=O)[C@]1([C@@H](O)[C@@H]1C=CCCC1)NC(=O)[C@@H]2CCCl [Formula II-16, Salinosporamide A]
- Log10 G150 (tGROV1): <-8.00 Molar
- Log10 TGI (tGROV1): -5.18 Molar
- CC50 (NCVADR-RES; [1]): 0.178 µM
- Log10 G150 (NCVADR-RES; NCVADR-RES, Breast Cancer): <-8.00 Molar
- Log10 TGI (NCVADR-RES; NCVADR-RES, Breast Cancer): <-8.00 Molar
- Log10 G150 (NCI-H460): <-8.00 Molar
- Log10 TGI (NCI-H460): -6.97 Molar
- Log10 G150 (OVCAR-3): <-8.00 Molar
- Log10 TGI (OVCAR-3): -4.83 Molar
- Log10 G150 (EKVX): <-8.00 Molar
- Log10 TGI (EKVX): -5.67 Molar
- Log10 G150 (DU-145; DU-145, Prostate Cancer): <-8.00 Molar
- Log10 TGI (DU-145; DU-145, Prostate Cancer): >-4.00 Molar
- CC50 (DU-145; Homo sapiens, DU-145, read-out: Log10 LC50 (converted)): > 100 µM
- Log10 G150 (SK-OV-3): <-8.00 Molar
- Log10 TGI (SK-OV-3): <-8.00 Molar
- Log10 G150 (ACHN): <-8.00 Molar
- Log10 TGI (ACHN): -5.27 Molar
- Log10 G150 (HCT-116): <-8.00 Molar
- Log10 TGI (HCT-116): -7.14 Molar
- Log10 G150 (HCI-H23): <-8.00 Molar
- Log10 TGI (HCI-H23): -7.85 Molar
- Log10 G150 (SF-539): <-8.00 Molar
- Log10 TGI (SF-539): <-8.00 Molar
- Log10 G150 (HCT-15; HCT-15, Colon Cancer): <-8.00 Molar
- Log10 TGI (HCT-15; HCT-15, Colon Cancer): -6.06 Molar
- CC50 (HCT-15; Homo sapiens, HCT-15, read-out: Log10 LC50 (converted)): 56.2 µM
- Log10 G150 (RXF393): <-8.00 Molar
- Log10 TGI (RXF393): <-8.00 Molar
- Log10 G150 (A498; A498, Renal Cancer): <-8.00 Molar
- Log10 TGI (A498; A498, Renal Cancer): <-8.00 Molar
- CC50 (A498; Homo sapiens, A498, read-out: Log10 LC50 (converted)): 0.0115 µM
- CC50 (SNB-19; Homo sapiens, SNB-19, read-out: Log10 LC50 (converted)): > 100 µM
- Log10 G150 (SNB-19; SNB-19, CNS Cancer): <-8.00 Molar
- Log10 TGI (SNB-19; SNB-19, CNS Cancer): >-4.00 Molar
- Log10 G150 (HDP-92; [2]): <-8.00 Molar
- Log10 TGI (HDP-92; [2]): -7.77 Molar
- CC50 (HDP-92; [1]): 4.37 µM
- CC50 (M14; Homo sapiens, M14, read-out: Log10 LC50 (converted)): 0.186 µM
- Log10 G150 (M14; M14, Melanoma): <-8.00 Molar
- Log10 TGI (M14; M14, Melanoma): -7.94 Molar
- CC50 (SK-MEL-21; 60 cell, read-out: Log10 LC50 (converted)): < 0.01 µM
- CC50 (SK-MEL-21; SK-MEL-28, read-out: LC50): < 0.01 µM
- Log10 G150 (SK-MEL-21; SK-MEL-21, Melanoma): <-8.00 Molar
- Log10 TGI (SK-MEL-21; SK-MEL-21, Melanoma): <-8.00 Molar
- CC50 (UACC-257; Homo sapiens, UACC-257, read-out: Log10 LC50 (converted)): 0.427 µM
- Log10 G150 (UACC-257; UACC-257, Melanoma): <-8.00 Molar
- Log10 TGI (UACC-257; UACC-257, Melanoma): <-8.00 Molar
- Log10 G150 (MCF7): <-8.00 Molar
- Log10 TGI (MCF7): >-4.00 Molar
- CC50 (RPMI-8226; Homo sapiens, RPMI-8226, read-out: Log10 LC50 (converted)): > 100 µM
- Log10 G150 (RPMI-8226; RPMI-8226, Leukemia): <-8.00 Molar
- Log10 TGI (RPMI-8226; RPMI-8226, Leukemia): <-8.00 Molar
- CC50 (UO-11; [1]): 25.7 µM
- Log10 G150 (UO-11; UO-11, Renal Cancer): <-8.00 Molar
- Log10 TGI (UO-11; UO-11, Renal Cancer): -5.83 Molar
- CC50 (PC-3; Homo sapiens, PC-3, read-out: Log10 LC50 (converted)): 11.7 µM
- Log10 G150 (PC-3; PC-3, Prostate Cancer): <-8.00 Molar
- Log10 TGI (PC-3; PC-3, Prostate Cancer): -5.81 Molar
- Log10 G150 (K-562): <-8.00 Molar
- Log10 TGI (K-562): -5.59 Molar
- Log10 G150 (OVCAR-4): <-8.00 Molar
- Log10 TGI (OVCAR-4): <-8.00 Molar
- Log10 G150 (SF-295): <-8.00 Molar
- Log10 TGI (SF-295): <-8.00 Molar
- Log10 G150 (HDP-62): <-8.00 Molar
- Log10 TGI (HDP-62): -4.89 Molar
- Log10 G150 (SR): <-8.00 Molar
- Log10 TGI (SR): <-8.00 Molar
- Log10 G150 (COLO 205): <-8.00 Molar
- Log10 TGI (COLO 205): -6.19 Molar
- Log10 G150 (U251): <-8.00 Molar
- Log10 TGI (U251): -5.99 Molar
